Experimental data taken from US20080214606A1, “Methods for the Identification and Use of Compounds Suitable for the Treatment of Drug Resistant Cancer Cells” (The Government of the United States of America as …, priority 2004, published 2008).

Tests used:
[1] = test system: KB-V1 cells (over-express MDR1-P-gp) vs parental KB-3-1 cells; experiment: MTT assay using the KB-3-1/KB-V1 cell pair; format: cell-based, human
Procedure: Cell survival is measured by the MTT (3-(4,5-Dimethylthiazol-2-yl)-2,5-diphenyltetrazolium) Assay. Cells are seeded in 100 μl medium at a density of 5000 cells/well in 96 well plates, and serially diluted drug (with or without 2 μM PSC 833) is added the following day in 100 μl medium to give the indicated final concentration. Cells are then incubated for 72 hrs at 37° C. in 5% CO2, and the MTT assay is performed according to the manufacturer's instructions (Molecular Probes, Eugene, Oreg.).
To test whether our approach using the NCI-60 does, in fact, identify new substrates, an MTT assay is used to test all top-scoring compounds that were available from DTP for follow-up experiments. KB-3-1, a human carcinoma cell line, and KB-V1, a multidrug resistant derivative of KB-3-1 that over-expresses MDR1-P-gp (Shen et al., 1986, J. Biol. Chem. 261:7762-7770), are used for the tests. […] This resistance of KB-V-1 cells is invariably reversible by PSC 833. The intrinsic fluorescence of one of the compounds, NSC 634791, allows for the measurement of the effect of MDR1 activity on its export from cells.

ABCC2 = target: T1, ABCC2 (Homo sapiens, UniProt Q92887); experiment: Correlation of ABCC2 expression with drug sensitivity across the NCI-60; format: cell-based; conditions: Pearson correlation of ABCC2 expression with sensitivity of the 60 cell lines; 1429 compounds; inverse, p < 0.0001
T1 construct: profiled in 60 diverse cancer cell lines (the NCI-60) using real-time RT-PCR; endogenous in cells; host or cells: NCI-60 human cancer cell lines
Procedure: (§1) Expression levels are measured by real-time quantitative RT-PCR using the LightCycler RNA Amplification SYBR Green kit and a LightCycler machine (Roche Biochemicals, Indianapolis, Ind.). […] When possible, the amplicons are designed to encompass exon-intron boundaries to avoid amplification of genomic DNA. Since the Syber Green assay detects accumulation of double stranded DNA, primers are selected (from a battery consisting of about 200 primers) that amplified a single product of the correct size.
(§2) RT-PCR is carried out on 150 ng total RNA, in the presence of 250 nM specific primers. Following reverse transcription (20 min at 50° C.), the PCR reaction consists of 45 cycles of denaturation (15 sec at 95° C.), annealing (30 sec at 58° C.), and elongation (30 sec at 72° C.). No-template (water) reaction mixtures are prepared as negative controls.
(§3) During PCR amplification, fluorescence emission is measured and recorded in real time by the LightCycler. Crossing point values are calculated, using the LightCycler software package, by the Fit Points analysis method, with baseline fluorescence set at 1. The SyberGreen assay measures accumulation of double-stranded products, and the appearance of primer dimers limits quantitation at high cycle numbers. The specificity of amplified products is verified by melting-curve analysis and agarose gel electrophoresis (not shown). The raw results are expressed as number of cycles to reach the crossing point. If the desired product is not detected, the corresponding value is adjusted to crossing points indicating no expression. To assess the contribution of experimental artifacts, selected cell lines are assessed in replicate.
(§4) The two are combined to form a joint dataset that includes 1429 compounds.
(§5) To determine quantitatively how well the 47 genes cluster the cell lines by their tissues of origin, a statistical method is employed wherein the kappa statistic is used to indicate how well the observed clusters correspond to the nine tissue-of-origin classifications. […] To control the overall false type 1 error rate, both a step-down procedure (Westfall and Young, 1993, Resampling-Based Multiple Testing: Examples and Methods for p-value Adjustment (New York: Wiley)) and a step-up procedure (Reiner et al., 2003, Bioinformatics 19:368-375) were employed to adjust for multiple testing of all 47 genes simultaneously. In the Benjamini-Hochberg procedure the p-values are computed in the standard way by permutation, assuming that all distributions are exchangeable: the number of values in the permuted data with correlations over a threshold, divided by the number of compounds and by the number of permutations. In this analysis, the False Discovery Rate (q-value) at which each compound would be declared was calculated using the step-up procedure for positively correlated test statistics (again true because all correlations being compared are computed against the same ABC gene): in this procedure the first q-value for the largest correlation is the Bonferroni-corrected p-value for that gene; then further q-values are calculated as qj=max(pj*1429/j, qj-1). This procedure limits the expected proportion of false positives in the list 1, . . . , j to at most qj.

ABCD1 = target: T2, ABCD1 (Homo sapiens, UniProt P33897); experiment: Correlation of ABCD1 expression with drug sensitivity across the NCI-60; format: cell-based; conditions: Pearson correlation of ABCD1 expression with sensitivity of the 60 cell lines; 1429 compounds; inverse, p < 0.0001
T2 construct: profiled in 60 diverse cancer cell lines (the NCI-60) using real-time RT-PCR; endogenous in cells; host or cells: NCI-60 human cancer cell lines
Procedure: as §1, §2, §3, §4, §5

ABCB1 = ABCB1 (Homo sapiens, UniProt P08183); experiment: Correlation of ABCB1 expression with drug sensitivity across the NCI-60
Method in brief: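 SYBR Green real-time RT-PCR on 150 ng total RNA with 250 nM primers: RT 20 min at 50 °C, then 45 cycles; expression taken as crossing-point cycle number. Correlated with drug sensitivity of 1429 compounds across the cell panel; permutation p-values with step-down and step-up (FDR q-value) multiple-testing correction.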

ABCC3 = target: T3, ABCC3 (Homo sapiens, UniProt O15438); experiment: Correlation of ABCC3 expression with drug sensitivity across the NCI-60; format: cell-based; conditions: Pearson correlation of ABCC3 expression with sensitivity of the 60 cell lines; 1429 compounds; inverse, p < 0.0001
T3 construct: profiled in 60 diverse cancer cell lines (the NCI-60) using real-time RT-PCR; endogenous in cells; host or cells: NCI-60 human cancer cell lines
T3 sequence (O15438 whole entry): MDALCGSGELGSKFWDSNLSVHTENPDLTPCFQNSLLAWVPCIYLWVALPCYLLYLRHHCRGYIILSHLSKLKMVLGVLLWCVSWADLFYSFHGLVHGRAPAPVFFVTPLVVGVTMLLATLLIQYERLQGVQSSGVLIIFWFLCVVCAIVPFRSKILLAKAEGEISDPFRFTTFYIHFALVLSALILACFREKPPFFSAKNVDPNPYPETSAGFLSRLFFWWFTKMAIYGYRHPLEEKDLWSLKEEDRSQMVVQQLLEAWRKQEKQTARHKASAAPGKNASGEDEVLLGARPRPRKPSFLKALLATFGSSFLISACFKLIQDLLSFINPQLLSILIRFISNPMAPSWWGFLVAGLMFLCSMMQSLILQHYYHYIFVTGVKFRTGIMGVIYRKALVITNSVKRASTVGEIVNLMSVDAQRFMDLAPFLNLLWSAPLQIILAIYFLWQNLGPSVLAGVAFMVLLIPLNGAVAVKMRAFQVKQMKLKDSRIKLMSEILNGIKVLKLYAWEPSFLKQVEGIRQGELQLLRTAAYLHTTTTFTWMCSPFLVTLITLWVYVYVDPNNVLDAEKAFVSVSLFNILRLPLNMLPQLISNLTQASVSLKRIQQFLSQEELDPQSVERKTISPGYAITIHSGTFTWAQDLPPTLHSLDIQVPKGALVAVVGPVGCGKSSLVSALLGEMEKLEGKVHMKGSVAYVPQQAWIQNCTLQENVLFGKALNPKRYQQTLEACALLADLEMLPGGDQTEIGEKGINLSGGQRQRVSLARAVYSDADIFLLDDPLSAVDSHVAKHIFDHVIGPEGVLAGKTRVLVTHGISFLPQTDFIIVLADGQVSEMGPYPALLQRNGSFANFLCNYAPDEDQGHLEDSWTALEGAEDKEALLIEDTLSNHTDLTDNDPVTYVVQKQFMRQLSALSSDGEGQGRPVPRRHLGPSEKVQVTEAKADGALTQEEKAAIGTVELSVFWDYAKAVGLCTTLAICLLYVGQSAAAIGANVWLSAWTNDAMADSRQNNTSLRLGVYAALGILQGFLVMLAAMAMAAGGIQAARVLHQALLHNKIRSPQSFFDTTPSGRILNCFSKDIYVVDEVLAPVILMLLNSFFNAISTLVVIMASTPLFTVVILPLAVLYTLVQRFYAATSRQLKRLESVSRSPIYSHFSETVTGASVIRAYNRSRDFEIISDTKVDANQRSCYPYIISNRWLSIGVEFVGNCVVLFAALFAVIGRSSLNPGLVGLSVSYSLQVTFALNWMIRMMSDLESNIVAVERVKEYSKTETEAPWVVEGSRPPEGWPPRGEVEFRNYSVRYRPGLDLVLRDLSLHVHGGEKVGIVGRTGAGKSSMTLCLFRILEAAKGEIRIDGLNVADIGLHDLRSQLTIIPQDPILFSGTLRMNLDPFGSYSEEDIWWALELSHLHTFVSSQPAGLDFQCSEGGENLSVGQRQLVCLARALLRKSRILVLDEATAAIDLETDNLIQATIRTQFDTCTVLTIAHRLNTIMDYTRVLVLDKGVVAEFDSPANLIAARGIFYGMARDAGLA
Procedure: as §1, §2, §3, §4, §5

ABCB1, sequence (P08183 whole entry): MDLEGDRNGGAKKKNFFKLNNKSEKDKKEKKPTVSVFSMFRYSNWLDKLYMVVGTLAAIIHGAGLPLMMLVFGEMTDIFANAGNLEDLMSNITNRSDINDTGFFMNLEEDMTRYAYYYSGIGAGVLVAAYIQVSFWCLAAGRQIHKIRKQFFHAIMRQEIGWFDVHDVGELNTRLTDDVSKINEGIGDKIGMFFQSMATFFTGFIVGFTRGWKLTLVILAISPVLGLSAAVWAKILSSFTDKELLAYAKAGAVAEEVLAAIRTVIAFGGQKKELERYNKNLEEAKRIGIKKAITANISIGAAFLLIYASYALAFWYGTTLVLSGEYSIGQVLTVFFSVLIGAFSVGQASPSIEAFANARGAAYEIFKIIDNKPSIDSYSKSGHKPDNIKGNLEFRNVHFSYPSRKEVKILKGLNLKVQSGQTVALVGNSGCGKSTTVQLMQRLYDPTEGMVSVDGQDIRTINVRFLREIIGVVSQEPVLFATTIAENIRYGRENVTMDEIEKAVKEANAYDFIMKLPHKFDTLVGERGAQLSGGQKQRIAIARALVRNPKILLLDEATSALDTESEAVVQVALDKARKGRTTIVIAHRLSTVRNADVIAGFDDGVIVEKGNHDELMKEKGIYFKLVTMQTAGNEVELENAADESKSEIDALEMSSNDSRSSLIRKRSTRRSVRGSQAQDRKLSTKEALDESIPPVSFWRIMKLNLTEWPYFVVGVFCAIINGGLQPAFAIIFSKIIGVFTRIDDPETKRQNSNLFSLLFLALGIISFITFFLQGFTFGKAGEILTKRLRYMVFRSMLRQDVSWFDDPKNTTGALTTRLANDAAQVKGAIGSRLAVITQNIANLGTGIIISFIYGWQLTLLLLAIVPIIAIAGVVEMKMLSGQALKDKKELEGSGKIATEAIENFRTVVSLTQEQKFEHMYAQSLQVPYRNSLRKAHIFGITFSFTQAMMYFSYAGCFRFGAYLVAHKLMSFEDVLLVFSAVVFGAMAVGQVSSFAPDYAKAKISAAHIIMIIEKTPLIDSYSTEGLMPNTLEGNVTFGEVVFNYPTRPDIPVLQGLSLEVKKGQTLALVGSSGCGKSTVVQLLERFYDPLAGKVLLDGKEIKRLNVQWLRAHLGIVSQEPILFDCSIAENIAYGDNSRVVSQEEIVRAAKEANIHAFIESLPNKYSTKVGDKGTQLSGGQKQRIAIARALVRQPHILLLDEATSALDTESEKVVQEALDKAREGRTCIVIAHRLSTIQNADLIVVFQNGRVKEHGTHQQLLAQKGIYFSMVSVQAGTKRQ
T2 sequence (P33897 whole entry): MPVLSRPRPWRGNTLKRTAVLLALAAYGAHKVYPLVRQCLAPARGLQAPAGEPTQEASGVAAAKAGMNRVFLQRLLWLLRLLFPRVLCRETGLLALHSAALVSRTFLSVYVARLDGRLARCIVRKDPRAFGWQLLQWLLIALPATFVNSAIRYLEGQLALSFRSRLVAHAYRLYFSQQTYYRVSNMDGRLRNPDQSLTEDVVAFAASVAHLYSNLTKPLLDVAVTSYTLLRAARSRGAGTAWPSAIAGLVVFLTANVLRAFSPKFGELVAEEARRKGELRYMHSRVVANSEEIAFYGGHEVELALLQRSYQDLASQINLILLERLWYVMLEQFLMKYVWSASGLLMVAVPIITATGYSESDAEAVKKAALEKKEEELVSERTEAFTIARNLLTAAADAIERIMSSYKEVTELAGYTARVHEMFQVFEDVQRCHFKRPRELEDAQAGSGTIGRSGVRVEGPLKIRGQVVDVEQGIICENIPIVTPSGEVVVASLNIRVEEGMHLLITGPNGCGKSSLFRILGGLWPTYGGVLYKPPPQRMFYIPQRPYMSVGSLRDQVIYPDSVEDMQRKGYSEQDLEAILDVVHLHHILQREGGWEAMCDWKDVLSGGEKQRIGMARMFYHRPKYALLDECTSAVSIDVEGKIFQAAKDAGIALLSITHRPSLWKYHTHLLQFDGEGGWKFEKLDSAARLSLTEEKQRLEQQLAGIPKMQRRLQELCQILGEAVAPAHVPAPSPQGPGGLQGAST
T1 sequence (Q92887 whole entry): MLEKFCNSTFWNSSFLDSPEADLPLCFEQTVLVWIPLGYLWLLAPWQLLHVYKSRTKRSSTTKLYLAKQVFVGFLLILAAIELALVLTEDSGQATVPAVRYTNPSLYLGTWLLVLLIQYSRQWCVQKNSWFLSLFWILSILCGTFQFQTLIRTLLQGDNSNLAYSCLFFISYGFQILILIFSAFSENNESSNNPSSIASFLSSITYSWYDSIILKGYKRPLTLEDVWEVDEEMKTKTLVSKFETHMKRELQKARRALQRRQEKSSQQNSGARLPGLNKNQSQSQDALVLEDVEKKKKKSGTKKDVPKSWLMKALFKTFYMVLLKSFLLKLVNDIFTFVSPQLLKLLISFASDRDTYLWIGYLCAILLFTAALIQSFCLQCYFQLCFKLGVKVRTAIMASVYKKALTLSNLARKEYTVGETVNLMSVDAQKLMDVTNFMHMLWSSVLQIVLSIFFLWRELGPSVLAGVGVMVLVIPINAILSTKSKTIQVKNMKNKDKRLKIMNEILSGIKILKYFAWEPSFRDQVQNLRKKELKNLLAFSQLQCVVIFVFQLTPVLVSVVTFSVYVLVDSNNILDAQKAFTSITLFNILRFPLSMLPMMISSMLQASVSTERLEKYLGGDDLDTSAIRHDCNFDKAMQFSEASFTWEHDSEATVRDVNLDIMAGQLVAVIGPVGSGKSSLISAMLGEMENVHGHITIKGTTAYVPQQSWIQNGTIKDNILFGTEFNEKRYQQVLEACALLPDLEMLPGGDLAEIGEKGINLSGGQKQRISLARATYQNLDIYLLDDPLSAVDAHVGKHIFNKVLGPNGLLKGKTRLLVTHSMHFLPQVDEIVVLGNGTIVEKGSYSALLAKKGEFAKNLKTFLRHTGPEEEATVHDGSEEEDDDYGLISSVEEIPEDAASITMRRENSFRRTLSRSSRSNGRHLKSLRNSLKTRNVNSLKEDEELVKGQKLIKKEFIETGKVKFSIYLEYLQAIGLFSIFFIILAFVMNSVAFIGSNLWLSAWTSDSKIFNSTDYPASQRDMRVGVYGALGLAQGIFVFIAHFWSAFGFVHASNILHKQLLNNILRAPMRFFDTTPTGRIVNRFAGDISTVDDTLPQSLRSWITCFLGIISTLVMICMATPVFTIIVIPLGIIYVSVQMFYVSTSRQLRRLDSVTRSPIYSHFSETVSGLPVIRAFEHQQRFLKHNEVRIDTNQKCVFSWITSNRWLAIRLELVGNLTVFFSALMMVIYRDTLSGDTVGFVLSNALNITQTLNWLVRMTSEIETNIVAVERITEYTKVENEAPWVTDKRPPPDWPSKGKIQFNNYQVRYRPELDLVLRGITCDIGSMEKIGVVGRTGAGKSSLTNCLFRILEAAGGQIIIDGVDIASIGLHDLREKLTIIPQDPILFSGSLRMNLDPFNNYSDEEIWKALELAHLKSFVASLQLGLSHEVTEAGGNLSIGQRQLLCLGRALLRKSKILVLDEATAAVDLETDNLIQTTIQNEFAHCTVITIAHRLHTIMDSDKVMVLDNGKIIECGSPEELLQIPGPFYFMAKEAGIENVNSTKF

| Structure (SMILES) | Correlation (ABCC2) | Correlation (ABCD1) | other results |
| --- | --- | --- | --- |
| O=C1c2cccc(NCCNCCO)c2C(=O)c2cccc(NCCNCCO)c21 [NSC 363997] |  |  | Effect of PSC 833 on the resistance of KB-V1 cells ([1]; MTT assay with 2 μM PSC 833): reverses the resistance; Resistance of KB-V1 cells in comparison with the parental line ([1]; MTT assay, 72 hrs): resistant |
| Cc1ccc(C2=CC(=O)/C(=C\C(=O)c3ccc(Br)cc3)O2)c(C)c1 [NSC 674919] | −0.4608 |  |  |
| NC(=S)N=Nc1c(O)[nH]c2c(Cl)cc(Cl)cc12 [NSC 73305] |  |  | Effect of PSC 833 on the heightened sensitivity of KB-V1 cells ([1]; MTT assay with 2 μM PSC 833): completely reverses sensitivity; Sensitivity of KB-V1 cells relative to parental KB-3-1 (potentiation by ABCB1) ([1]; MTT assay, 72 hrs): several-fold more sensitive |
| COc1ccc(NC(=S)N=Nc2c(O)[nH]c3c(Cl)cc(Cl)cc23)cc1 [NSC 73304] |  |  | Effect of PSC 833 on the heightened sensitivity of KB-V1 cells ([1]; MTT assay with 2 μM PSC 833): completely reverses sensitivity; Sensitivity of KB-V1 cells relative to parental KB-3-1 (potentiation by ABCB1) ([1]; MTT assay, 72 hrs): several-fold more sensitive |
| CCCCCCCCCCCCCC(=O)NO [NSC 634458] | −0.4326 |  |  |
| CC(C)Cc1ccc(C(C)/C=C2\CCC(CN3CCOCC3)C2=O)cc1.Cl (stereo not drawn) [NSC 639976] | −0.4670 |  |  |
| CN(O)C(=O)c1ccc(OCc2cccc(Cl)c2)cc1 [NSC 692759] |  | −0.5034 | Pearson's Correlation Coeff (ABCB1): 0.4149 |
| CCCCCCOc1ccc(C(=O)N(C)O)cc1 [NSC 692758] |  | −0.5012 | Pearson's Correlation Coeff (ABCB1): 0.4825 |
| CN(C)CCC(=O)N1C/C(=C\c2ccc(Cl)c(Cl)c2)C(=O)/C(=C/c2ccc(Cl)c(Cl)c2)C1.Cl [NSC 638645] | −0.5028 |  |  |
| CC1(C)OC2C(CO[Si](C)(C)C(C)(C)C)OC(n3cnc4c(N)nc(C#C[Si](C)(C)C)nc43)C2O1 (stereo not drawn) [NSC 687496] | −0.4544 |  |  |
| COc1ccc2c(c1)c(=O)c1c(NCCCN(C)C)ccc3ncn2c31.Cl [NSC 645813] |  | −0.4824 |  |
| CC(C)OC(=O)c1ccc(CCC2=CC(=O)C=CC2=O)cc1 [NSC 684496] | −0.4340 |  |  |
| O=C1/C(=C/c2ccc(F)cc2)CNC/C1=C\c1ccc(F)cc1 [NSC 685126] |  | −0.4464 |  |
| CCOC(=O)c1oc2cc3c(c4c2c1-c1ccccc1N4C)C=CC(C)(C)O3 [NSC 693215] | −0.4377 |  |  |
| CC(C)(C)NNc1c([N+](=O)[O-])cnn(-c2ccccc2)c1=O [NSC 641820] |  |  | Correlation (ABCC3): −0.3991 |
| O=[N+]([O-])c1cccc(/C=N/Nc2ccc3ccccc3n2)c1O [NSC 168468] |  |  | Correlation of antiproliferative activity with ABCB1 expression (ABCB1): 0.4839; Effect of PSC 833 on the heightened sensitivity of KB-V1 cells ([1]; MTT assay with 2 μM PSC 833): completely reversed sensitivity; Sensitivity of KB-V1 cells relative to parental KB-3-1 (potentiation by ABCB1) ([1]; MTT assay, 72 hrs): equivalent to or greater than the potentiation effect observed for NSC 73306 |
| CCN(CC)CC(O)CNc1ccc(NCC2CO2)c2c1C(=O)c1ccccc1C2=O (stereo not drawn) [NSC 639366] |  |  | Correlation (ABCC3): −0.5003 |
| CCN(CC)CCCNc1ncc(C)c2c1c1ccc3c(O)cccc3c1n2C [NSC 653438] |  | −0.4252 |  |
| CC1=NN(c2nc(N)nc(CBr)n2)C(C)(C)C1 [NSC 696916] | −0.4224 |  |  |
| Nc1nc(=S)c2ncn(C3CC(O)C(CO)O3)c2[nH]1 (stereo not drawn) [NSC 71851] |  | −0.4425 |  |
| COC(=O)[C@@]12C(=O)C=CC(=O)[C@@H]1C1C(=CC2COC(C)=O)O[C@@H]2OC3(CCCCC3)O[C@H]12 (stereo partly drawn) [NSC 637399] | −0.4969 |  |  |
| COc1cccc2c1C(=O)C=CC2=O [NSC 618315] | −0.4247 |  |  |
| CCOC(=O)/C(C#N)=C/c1ccc2c(c1)CC1(C2)Cc2cc(CC)c(C(C)O)cc2C1 (stereo not drawn) [NSC 670289] |  |  | Correlation (ABCC3): −0.3824 |
| COc1cc(/C=C2\CCC(CN(C)C)C2=O)ccc1OC(=O)c1ccccc1.Cl (stereo not drawn) [NSC 639518] | −0.4350 |  |  |
| NC(=O)c1[nH]nc([C@@H]2O[C@H](CO)[C@@H](O)[C@H]2O)c1O [NSC 143095] |  | −0.5337 | Pearson's Correlation Coeff (ABCB1): 0.2763 |
| CCCCCCOc1ccc(C(=O)NO)cc1 [NSC 692754] | −0.4016 | −0.4680 | Pearson's Correlation Coeff (ABCB1): 0.4616 |
| O=c1cc(O)ccn1[C@@H]1O[C@H](CO)[C@@H](O)[C@H]1O [NSC 126849] |  | −0.4214 | Pearson's Correlation Coeff (ABCB1): 0.2357 |
| CC(C)Cc1ccc(C(C)/C=C2\CCC(CN3CCCCC3)C2=O)cc1.Cl (stereo not drawn) [NSC 639978] | −0.5210 |  |  |
